Measurements published in US20240132492A1, “PYRIDOPYRIMIDINE-BASED COMPOUND AND APPLICATION THEREOF” (JINAN UNIVERSITY, priority 2021, published 2024).

How the values were obtained:
Format in all cases: cell-based
A431 = experiment: CCK-8 tumor cell proliferation, A431; conditions: 72 hours
Method: (§1) Tumor cells (see Table 2 to Table 5) were inoculated in 96-well plates in complete culture medium (2000-3000 cells/well). After overnight incubation, the compounds with different concentrations (0.000508 μM-10 μM) were used to treat the cells separately for 72 hours. CCK-8 (Cell Counting Kit 8, Dojindo Laboratories, Kumamoto, Japan) experiment was used to evaluate cell proliferation. GraphPad Prism 5.0 software (La Jolla, CA) was used to calculate the half-maximal inhibitory concentration (IC50) values by fitting the concentration response curve. Each IC50 value was represented as an average value±SD.

H1299 = experiment: CCK-8 tumor cell proliferation, H1299; conditions: 72 hours
Method: as §1

H1975 = experiment: CCK-8 tumor cell proliferation, H1975; conditions: 72 hours
Method: as §1

AKT1 = molecular target: T1, AKT1 (Homo sapiens, UniProt P31749); experiment: Western Blot, degradation of AKT1 protein in H1975-OR cells; conditions: 24 hours, maximum degradation rate; for Dmax at 1 µM: 1000 nM
T1 construct: AKT1, AKT2, and AKT3 proteins in H1975-OR cells; endogenous in cells; host or cells: H1975-OR (osimertinib-resistant H1975)
Method: (§2) Cell line: Non-small cell lung cancer H1975-OR cell line, which is an Osimertinib resistant H1975 cell line, and could be obtained through low dose gradual addition culture. Specific method: H1975 cells were spread in a 10 cm culture dish at a convergence rate of 60-70%, added 50 nM of Osimertinib to the culture medium. After the cell state stabilized, the concentration of Osimertinib was gradually double to 3 μM.
(§3) Conventional Western Blot (immunoblotting) was used for detection, as follows: a certain number of H1975-OR cells were planted on a 96 well plate, adherent cultured in an incubator overnight, and added a certain concentration of compound to act for 24 hours. 1×SDS lysis buffer with protease and phosphatase inhibitors was used to lyse cells. Cell lysates were separated by SDS-PAGE and transferred to PVDF membrane. Then, at room temperature, the PCDF membrane was taken out and immersed in a sealing solution (5% BSA TBS solution containing 0.5% Tween-20) for sealing treatment for 1 hour, and then incubated with a specific primary antibody at 4° C. overnight. The imprints were washed with TBST and incubated with horseradish peroxidase (HRP) labeled secondary antibodies at room temperature for 2 hours. Finally, ECL plus fluorescence detection reagent (Thermo Scientific, Waltham, MA) was used for protein development, and the Amersham Imager 600 system (GE, America) was used for photography. The detection results were processed using ImageJ software to obtain the grayscale value G (Density).

HCC827 = experiment: CCK-8 tumor cell proliferation, HCC827; conditions: HCC827 cells, 72 hours
Method: as §1

AKT2 = molecular target: T2, AKT2 (Homo sapiens, UniProt P31751); experiment: Western Blot, degradation of AKT2 protein in H1975-OR cells; conditions: 24 hours, maximum degradation rate; for Dmax at 1 µM: 1000 nM
T2 construct: AKT1, AKT2, and AKT3 proteins in H1975-OR cells; endogenous in cells; host or cells: H1975-OR (osimertinib-resistant H1975)
Method: as §2, §3

H1975OR = experiment: CCK-8 tumor cell proliferation, H1975OR; conditions: H1975OR cells (Osimertinib resistant), 72 hours
Method: as §2, §1

AKT3 = AKT3 (Homo sapiens, UniProt Q9Y243); experiment: Western Blot, degradation of AKT3 protein in H1975-OR cells; design: endogenous in cells; host or cells: H1975-OR (osimertinib-resistant H1975); conditions: 24 hours, maximum degradation rate; for Dmax at 1 µM: 1000 nM
Method: as §2, §3

PC-9 = experiment: CCK-8 tumor cell proliferation, PC-9; conditions: PC-9 cells, 72 hours
Method: as §1

[1] = Homo sapiens, A-431, A431 cells
[2] = Homo sapiens, NCI-H1299, H1299 cells
[3] = Homo sapiens, NCI-H1975, H1975 cells

AKT3, sequence (Q9Y243 whole entry): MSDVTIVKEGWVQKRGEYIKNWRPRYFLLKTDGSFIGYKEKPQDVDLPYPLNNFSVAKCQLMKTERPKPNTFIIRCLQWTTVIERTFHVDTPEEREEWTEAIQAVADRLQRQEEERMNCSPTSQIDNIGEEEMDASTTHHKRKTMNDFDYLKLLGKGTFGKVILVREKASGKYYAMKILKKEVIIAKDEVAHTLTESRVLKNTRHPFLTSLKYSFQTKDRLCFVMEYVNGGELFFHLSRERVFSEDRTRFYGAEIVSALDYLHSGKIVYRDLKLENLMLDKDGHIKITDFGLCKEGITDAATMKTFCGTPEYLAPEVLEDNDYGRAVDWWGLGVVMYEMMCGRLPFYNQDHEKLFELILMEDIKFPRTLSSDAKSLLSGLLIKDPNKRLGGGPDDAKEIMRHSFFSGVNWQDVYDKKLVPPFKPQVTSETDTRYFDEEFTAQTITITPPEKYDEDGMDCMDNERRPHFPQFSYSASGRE
T1 sequence (P31749 whole entry): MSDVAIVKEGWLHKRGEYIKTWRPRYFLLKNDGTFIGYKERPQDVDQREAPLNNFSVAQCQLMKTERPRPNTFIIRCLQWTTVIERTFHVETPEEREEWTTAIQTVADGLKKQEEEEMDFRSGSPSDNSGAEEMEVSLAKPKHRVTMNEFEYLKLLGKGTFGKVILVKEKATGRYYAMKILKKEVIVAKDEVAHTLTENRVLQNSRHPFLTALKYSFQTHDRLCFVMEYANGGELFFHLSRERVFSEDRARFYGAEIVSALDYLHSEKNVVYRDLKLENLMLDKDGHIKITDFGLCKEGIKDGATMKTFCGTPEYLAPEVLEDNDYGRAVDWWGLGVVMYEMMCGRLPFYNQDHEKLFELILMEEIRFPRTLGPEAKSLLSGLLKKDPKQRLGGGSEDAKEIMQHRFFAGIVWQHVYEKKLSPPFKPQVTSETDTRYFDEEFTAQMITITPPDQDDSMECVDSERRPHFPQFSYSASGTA
T2 sequence (P31751 whole entry): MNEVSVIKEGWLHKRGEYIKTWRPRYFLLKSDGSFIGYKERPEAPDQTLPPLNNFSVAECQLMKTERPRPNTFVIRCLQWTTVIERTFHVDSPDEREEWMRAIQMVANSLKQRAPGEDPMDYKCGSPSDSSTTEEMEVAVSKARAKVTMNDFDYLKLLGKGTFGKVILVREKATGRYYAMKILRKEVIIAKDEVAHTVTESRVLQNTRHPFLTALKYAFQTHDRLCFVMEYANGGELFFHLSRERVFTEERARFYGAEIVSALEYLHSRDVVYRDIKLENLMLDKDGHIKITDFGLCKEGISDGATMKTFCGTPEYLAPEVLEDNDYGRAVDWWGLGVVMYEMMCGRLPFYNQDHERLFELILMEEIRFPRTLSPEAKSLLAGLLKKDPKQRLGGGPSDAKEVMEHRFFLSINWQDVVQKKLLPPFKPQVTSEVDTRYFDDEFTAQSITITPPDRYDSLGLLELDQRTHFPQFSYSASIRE

Row | SMILES | IC50 (A431; [1]) | IC50 (H1299; [2]) | IC50 (H1975; [3]) | Dmax at 1 µM (AKT1) | IC50 (HCC827; Homo sapiens) | Dmax at 1 µM (AKT2) | IC50 (H1975OR) | Dmax at 1 µM (AKT3) | IC50 (PC-9; Homo sapiens) | IC50 (A431; A431 cells) | IC50 (H1299; H1299 cells) | IC50 (H1975; H1975 cells) | Dmax (%) at 1000 nM AKT1 (AKT1) | IC50 (HCC827) | Dmax (%) at 1000 nM AKT2 (AKT2) | Dmax (%) at 1000 nM AKT3 (AKT3) | IC50 (PC-9)
1 | CCC(=O)Nc1cccc(-n2c(=O)cc(C)c3cnc(Nc4ccc(N5CCN(CCCCCCCCCCCCNC(=O)CC67CC8CC(CC(C8)C6)C7)CC5)cc4OC)nc32)c1 [ZX-HYT-08, N-(3-(2-((4-(4-(12-(2-((3R, 5R, 7R)-adamantan-1-yl)acetylamino)dodecyl)piperazin-1-yl)-2-methoxyphenyl)amino)-5-methyl-7-oxypyridino [2,3-d]pyrimidin-8 (7H)-yl)phenyl) propionamide] | 0.00986 ± 0.0022 µM | 0.212 ± 0.0153 µM | 8.47 µM | 0% | 0.157 ± 0.0679 µM | 0% | 0.0107 ± 0.003 µM | 66.8% | 0.109 ± 0.019 µM | – | – | – | – | – | – | – | –
2 | COc1cc(N2CCN(CCCCCCCCCCCCNC(=O)CC34CC5CC(CC(C5)C3)C4)CC2)ccc1Nc1ncc2c(C)cc(=O)n(-c3cccc(NC(=O)C4CCCCC4)c3)c2n1 [ZX-HYT-13, N-(3-(2-((4-(4-(12-(2-(((3R, 5R, 7R)-adamantan-1-yl)acetylamino)dodecyl)piperazin-1-yl)-2-methoxyphenyl)amino)-5-methyl-7-oxypyridino [2,3-d]pyrimidin-8 (7H)-yl)phenyl)cyclohexane formamide] | 2.29 ± 0.0474 µM | > 10 µM | 6.96 ± 6.04 µM | – | 10.7 ± 3.88 µM | – | 0.216 ± 0.032 µM | – | > 10 µM | – | – | – | – | – | – | – | –
3 | C=CC(=O)Nc1cccc(-n2c(=O)cc(C)c3cnc(Nc4ccc(N5CCN(CCCCCCNC(=O)CC67CC8CC(CC(C8)C6)C7)CC5)cc4OC)nc32)c1 [ZX-HYT-02, N-(3-(2-((4-(4-(6-(2-(((3R, 5R, 7R)-adamantan-1-yl)acetamido)hexyl)piperazin-1-yl)-2-methoxyphenyl)amino)-5-methyl-7-oxypyridino [2,3-d]pyrimidin-8 (7H)-yl)phenyl)acrylamide] | 0.102 ± 0.0095 µM | 8.74 ± 1.12 µM | 0.194 ± 0.063 µM | 0% | 0.105 ± 0.00819 µM | 0% | 0.167 ± 0.025 µM | 30.8% | 0.255 ± 0.0394 µM | – | – | – | – | – | – | – | –
4 | C=CC(=O)Nc1cccc(-n2c(=O)cc(C)c3cnc(Nc4ccc(N5CCN(C(=O)CCCCCCCCCCCNC(=O)CC67CC8CC(CC(C8)C6)C7)CC5)cc4OC)nc32)c1 [ZX-HYT-07, N-(3-(2-((4-(4-(12-(2-((3R, 5R, 7R)-adamantan-1-yl)acetylamino)dodecanoyl)piperazin-1-yl)-2-methoxyphenyl)amino)-5-methyl-7-oxypyridino [2,3-d]pyrimidin-8 (7H)-yl)phenyl) acrylamide] | – | – | – | – | – | – | 0.417 ± 0.08 µM | – | – | 0.0839 ± 0.0133 µM | 1.46 ± 0.428 µM | 5.07 ± 0.836 µM | 0% | 0.882 ± 0.0945 µM | 0% | 69.2% | 6.79 ± 3.6 µM
5 | COc1cc(N2CCN(CCCCCCCCCCCCNC(=O)CC34CC5CC(CC(C5)C3)C4)CC2)ccc1Nc1ncc2c(C)cc(=O)n(-c3cccc(NC(C)=O)c3)c2n1 [ZX-HYT-09, N-(12-(4-(4-((8-(3-acetylaminophenyl)-5-methyl-7-oxy-7,8-dihydropyridino [2,3-d]pyrimidin-2-yl]amino)-3-methoxyphenyl)piperazin-1-yl)dodecyl)-2-((3R, 5R, 7R)-adamantan-1-yl) acetamide] | 0.0106 ± 0.002 µM | 0.624 ± 0.0448 µM | 0.119 ± 0.0112 µM | 0% | 0.134 ± 0.064 µM | 0% | 0.0236 ± 0.00351 µM | 75.7% | 0.215 ± 0.0636 µM | – | – | – | – | – | – | – | –
6 | COc1cc(N2CCN(CCCCCCCCCCCCNC(=O)CC34CC5CC(CC(C5)C3)C4)CC2)ccc1Nc1ncc2c(C)cc(=O)n(-c3cccc(NC(=O)C(C)C)c3)c2n1 [ZX-HYT-10, N-(3-(2-((4-(4-(12-(2-(((3R, 5R, 7R)-adamantan-1-yl)acetylamino)dodecyl)piperazin-1-yl)-2-methoxyphenyl)amino)-5-methyl-7-oxypyridino [2,3-d]pyrimidin-8 (7H)-yl)phenyl)isobutylamide] | 0.0517 µM | 1.81 ± 0.395 µM | 0.142 ± 0.0494 µM | 0% | 0.309 ± 0.139 µM | 25.3% | 0.0196 ± 0.00141 µM | 57.1% | 0.126 ± 0.0177 µM | – | – | – | – | – | – | – | –
7 | COc1cc(N2CCN(CCCCCCCCCCCCNC(=O)CC34CC5CC(CC(C5)C3)C4)CC2)ccc1Nc1ncc2c(C)cc(=O)n(-c3cccc(NC(=O)C(C)(C)C)c3)c2n1 [ZX-HYT-12] | 0.155 ± 0.0075 µM | 2.17 ± 0.419 µM | 0.554 ± 0.213 µM | 56% | 0.549 ± 0.247 µM | 0% | 0.136 ± 0.0165 µM | 75.4% | 0.466 ± 0.0241 µM | – | – | – | – | – | – | – | –
8 | COc1cc(N2CCN(CCCCCCCCCCCCNC(=O)CC34CC5CC(CC(C5)C3)C4)CC2)ccc1Nc1ncc2c(C)cc(=O)n(C3CCCC3)c2n1 [ZX-HYT-24, 2-(((3R, 5R, 7R)-adamantan-1-yl)-N-(12-(4-(4-(8-cyclopentyl-5-methyl-7-oxy-7,8-dihydropyridinyl [2,3-d]pyrimidin-2-yl)amino)-3-methoxyphenyl)piperazin-1-yl)dodecyl) acetamide] | 0.212 ± 0.0653 µM | – | 2.67 ± 0.471 µM | 0% | 1.4 ± 0.248 µM | 0% | 0.734 ± 0.00594 µM | 51.5% | – | – | – | – | – | – | – | – | –
9 | C=CC(=O)Nc1cccc(-n2c(=O)cc(C)c3cnc(Nc4ccc(N5CCN(CCOCCOCCNC(=O)CC67CC8CC(CC(C8)C6)C7)CC5)cc4OC)nc32)c1 [ZX-HYT-01] | 0.541 ± 0.0589 µM | 10.4 ± 1.72 µM | 3.27 ± 0.598 µM | 59.2% | 0.141 ± 0.0372 µM | 27.2% | 2.01 ± 0.444 µM | 67.6% | 1.57 ± 0.258 µM | – | – | – | – | – | – | – | –
10 | C=CC(=O)Nc1cccc(-n2c(=O)cc(C)c3cnc(Nc4ccc(N5CCN(CCCCCCCCCCNC(=O)CC67CC8CC(CC(C8)C6)C7)CC5)cc4OC)nc32)c1 [ZX-HYT-04, N-(3-(2-((4-(4-(10-(2-(((3R, 5R, 7R)-adamantan-1-yl)acetylamino)decyl)piperazin-1-yl)-2-methoxyphenyl)amino)-5-methyl-7-oxypyridino [2,3-d]pyrimidin-8 (7H)-yl)phenyl)acrylamide] | 0.0102 ± 0.002 µM | 0.305 ± 0.166 µM | 1.77 ± 0.187 µM | 0% | 0.0555 ± 0.0327 µM | 0% | 0.083 ± 0.019 µM | 26.6% | 0.0181 ± 0.00105 µM | – | – | – | – | – | – | – | –
11 | C=CC(=O)Nc1ccc(-n2c(=O)cc(C)c3cnc(Nc4ccc(N5CCN(CCCCCCCCCCCCNC(=O)CC67CC8CC(CC(C8)C6)C7)CC5)cc4OC)nc32)cc1 [ZX-HYT-14, N-(4-(2-((4-(4-(12-(2-(((3R, 5R, 7R)-adamantan-1-yl)acetylamino)dodecyl)piperazin-1-yl)-2-methoxyphenyl)amino)-5-methyl-7-oxypyridino [2,3-d]pyrimidin-8 (7H)-yl)phenyl)acrylamide] | > 10 µM | > 10 µM | > 10 µM | – | > 10 µM | – | > 10 µM | – | > 10 µM | – | – | – | – | – | – | – | –
12 | COc1cc(N2CCN(CCCCCCCCCCCCNC(=O)CC34CC5CC(CC(C5)C3)C4)CC2)ccc1Nc1ncc2c(C)cc(=O)n(-c3ccc(NC(=O)C4CC4)cc3)c2n1 [ZX-HYT-15, N-(4-(2-((4-(4-(12-(2-(((3R, 5R, 7R)-adamantan-1-yl)acetylamino)dodecyl)piperazin-1-yl)-2-methoxyphenyl)amino)-5-methyl-7-oxypyridino [2,3-d]pyrimidin-8 (7H)-yl)phenyl)cyclopropane formamide] | > 10 µM | > 10 µM | > 10 µM | – | > 10 µM | – | > 10 µM | – | 4.8 ± 0.501 µM | – | – | – | – | – | – | – | –
